Experimental findings from ChEMBL document CHEMBL1201862, “PubChem BioAssay data set” (2004) are described below.

For assay [1], the target named is Benomyl/methotrexate resistance protein (Candida albicans, UniProt P28873). Description: CaMdr1 efflux pump inhibitor potency, dose response, singleplex, Cherry Pick1 hits (AID 588608). It counts as functional.
Assay [2] deals with Multidrug resistance protein CDR1 (Candida albicans, UniProt P43071). Nature of the assay: CaCDR1 efflux pump inhibitors in yeast, dose response, S. cerevisiae AD1-8u, singleplex, Cherry Pick1 hits (AID 588606). It counts as functional.
The target of assay [3] is Multidrug resistance protein CDR2 (Candida albicans (strain SC5314 / ATCC MYA-2876) (Yeast), UniProt P78595). Description: CaCDR2 efflux pump inhibitors in yeast, dose response, S. cerevisiae AD1-8u, singleplex, Cherry Pick1 hits (AID 588604). The format is functional.
In assay [4] the target is T1, Apoptotic protease-activating factor 1 (Homo sapiens, UniProt O14727).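 Also: caspase-3 cleavage of fluorogenic Rh110 DEVD substrate downstream of apoptosome activation.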
T1 sequence (O14727 whole entry): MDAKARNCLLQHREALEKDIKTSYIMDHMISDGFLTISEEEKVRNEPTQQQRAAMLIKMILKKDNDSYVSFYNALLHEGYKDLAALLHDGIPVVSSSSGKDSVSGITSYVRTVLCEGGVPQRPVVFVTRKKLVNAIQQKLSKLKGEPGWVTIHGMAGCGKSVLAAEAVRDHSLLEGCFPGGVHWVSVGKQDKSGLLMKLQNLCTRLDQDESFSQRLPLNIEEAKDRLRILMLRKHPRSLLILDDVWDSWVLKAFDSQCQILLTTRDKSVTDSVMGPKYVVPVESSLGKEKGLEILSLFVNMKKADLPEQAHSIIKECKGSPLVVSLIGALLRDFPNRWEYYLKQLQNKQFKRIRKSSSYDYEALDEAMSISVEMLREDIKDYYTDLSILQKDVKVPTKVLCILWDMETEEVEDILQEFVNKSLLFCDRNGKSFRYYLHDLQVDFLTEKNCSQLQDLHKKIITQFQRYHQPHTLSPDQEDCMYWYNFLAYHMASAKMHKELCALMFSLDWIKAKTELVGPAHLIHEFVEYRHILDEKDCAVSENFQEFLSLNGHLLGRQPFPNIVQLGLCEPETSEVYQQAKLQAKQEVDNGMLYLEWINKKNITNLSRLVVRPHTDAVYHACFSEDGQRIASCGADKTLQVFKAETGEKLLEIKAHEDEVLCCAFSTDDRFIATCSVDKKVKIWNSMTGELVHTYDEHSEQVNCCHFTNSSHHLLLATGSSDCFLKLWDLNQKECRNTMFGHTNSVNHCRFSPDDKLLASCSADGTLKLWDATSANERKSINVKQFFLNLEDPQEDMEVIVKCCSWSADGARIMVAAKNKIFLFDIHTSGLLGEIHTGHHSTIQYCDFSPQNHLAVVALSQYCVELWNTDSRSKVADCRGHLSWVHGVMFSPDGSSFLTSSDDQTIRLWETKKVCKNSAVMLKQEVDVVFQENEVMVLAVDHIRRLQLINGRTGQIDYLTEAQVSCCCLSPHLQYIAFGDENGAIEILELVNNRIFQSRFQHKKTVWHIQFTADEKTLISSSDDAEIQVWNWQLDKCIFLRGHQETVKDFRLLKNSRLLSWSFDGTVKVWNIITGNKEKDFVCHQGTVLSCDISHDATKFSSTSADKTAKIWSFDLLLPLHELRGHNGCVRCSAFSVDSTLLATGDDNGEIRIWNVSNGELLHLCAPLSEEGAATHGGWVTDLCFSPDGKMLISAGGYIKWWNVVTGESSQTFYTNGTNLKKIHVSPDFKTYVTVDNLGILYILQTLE
Description: SAR analysis of small molecule Activators of Apaf-1 in a Fluorescent assay. It counts as functional. The settings on record: read-out: EC50_Mean.

The target in assay [5] is T2, Interleukin-8 (Homo sapiens, UniProt P10145). Nature of the assay: Dose Response confirmation of uHTS small molecule hits for cystic fibrosis induced NFkb Inhibitors in a TNFa-induced IL8 counterscreen. The format is functional. The settings on record: read-out: IC50_Mean.
T2 sequence (P10145 whole entry): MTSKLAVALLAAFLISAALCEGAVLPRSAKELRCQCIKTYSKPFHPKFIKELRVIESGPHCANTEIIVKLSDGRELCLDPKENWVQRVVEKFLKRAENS
Assay [6] concerns the target T2, Interleukin-8. Nature of the assay: Dose Response confirmation of uHTS small molecule hits for cystic fibrosis induced NFkb Inhibitors in a PAF-induced IL8 counterscreen. It counts as functional. The settings on record: read-out: IC50_Mean. In general terms: The purpose of a counterscreen is to sort out artefacts and off-target activity.
The target of assay [7] is T3, ATP-dependent translocase ABCB1 (Homo sapiens, UniProt P08183). Nature of the assay: ABCG2 efflux pump inhibitor potency, dose response, Ig-MXP3 cells, JC-1, flow cytometry, set 2 (AID 504566).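 Also: flow cytometry median green fluorescence of retained JC-1 dye; potency of efflux pump inhibition measured as rising substrate retention.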 The settings on record: read-out: EC50_MICROM_. It counts as functional. Background: In flow cytometry, cells or beads pass a laser one at a time.
T3 sequence (P08183 whole entry): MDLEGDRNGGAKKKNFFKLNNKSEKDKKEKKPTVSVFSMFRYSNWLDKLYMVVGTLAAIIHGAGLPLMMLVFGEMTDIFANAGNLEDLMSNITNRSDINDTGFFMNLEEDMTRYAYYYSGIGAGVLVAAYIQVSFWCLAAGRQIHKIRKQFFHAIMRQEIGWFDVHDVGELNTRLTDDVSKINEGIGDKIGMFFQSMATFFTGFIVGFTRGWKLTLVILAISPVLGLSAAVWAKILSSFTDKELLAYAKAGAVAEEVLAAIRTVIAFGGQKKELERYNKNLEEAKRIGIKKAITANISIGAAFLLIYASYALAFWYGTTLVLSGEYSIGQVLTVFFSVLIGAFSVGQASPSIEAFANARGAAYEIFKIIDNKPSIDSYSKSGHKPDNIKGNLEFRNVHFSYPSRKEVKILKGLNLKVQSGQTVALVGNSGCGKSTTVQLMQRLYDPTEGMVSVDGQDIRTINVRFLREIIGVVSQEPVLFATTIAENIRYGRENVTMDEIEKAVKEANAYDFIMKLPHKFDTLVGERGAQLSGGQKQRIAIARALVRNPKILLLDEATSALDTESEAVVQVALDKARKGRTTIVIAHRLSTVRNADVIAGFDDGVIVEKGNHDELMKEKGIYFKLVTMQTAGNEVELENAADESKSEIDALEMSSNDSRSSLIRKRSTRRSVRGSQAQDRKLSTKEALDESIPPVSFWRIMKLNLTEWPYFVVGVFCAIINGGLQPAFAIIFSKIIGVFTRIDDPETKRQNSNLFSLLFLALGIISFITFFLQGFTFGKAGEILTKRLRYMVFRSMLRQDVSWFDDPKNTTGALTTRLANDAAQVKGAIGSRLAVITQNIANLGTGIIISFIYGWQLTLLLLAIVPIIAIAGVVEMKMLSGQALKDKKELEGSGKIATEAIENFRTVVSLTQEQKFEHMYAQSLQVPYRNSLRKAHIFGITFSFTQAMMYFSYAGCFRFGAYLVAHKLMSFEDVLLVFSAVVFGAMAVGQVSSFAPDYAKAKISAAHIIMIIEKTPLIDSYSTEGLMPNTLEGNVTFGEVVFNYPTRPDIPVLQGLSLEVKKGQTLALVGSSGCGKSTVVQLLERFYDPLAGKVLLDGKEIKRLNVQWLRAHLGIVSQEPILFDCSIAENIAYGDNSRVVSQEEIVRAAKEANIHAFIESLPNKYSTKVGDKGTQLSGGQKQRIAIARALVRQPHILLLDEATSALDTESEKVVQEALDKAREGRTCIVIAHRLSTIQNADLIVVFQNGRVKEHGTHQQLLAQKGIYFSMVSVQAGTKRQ
Assay [8] concerns the target T3, ATP-dependent translocase ABCB1. Nature of the assay: ABCB1 efflux inhibitor potency, dose response, Jurkat-DNR cells, JC-1, flow cytometry, set 2 (AID 504569).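 Also: potency of pump inhibitors that raise cellular JC-1 green fluorescence up to the nicardipine level.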 It counts as functional. The settings on record: read-out: EC50_MICROM_.
Assay [9] has as its target Ras and Rab interactor 1/Tyrosine-protein kinase ABL1 (Homo sapiens, UniProt P00519+Q13671). The format is functional.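 Also: biochemical TR-FRET dose-response test measuring inhibition of binding between Rin1 and Abl proteins.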
Assay [10] concerns the target T4, Mitochondrial peptide methionine sulfoxide reductase (Bos taurus, UniProt P54149). Description: Absorbance-based biochemical high throughput dose response assay for activators of Methionine sulfoxide reductase A (MsrA). The format is functional.
The target of assay [11] is Photoreceptor-specific nuclear receptor (Homo sapiens, UniProt Q9Y5X4). It counts as functional, cell-based.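 Also: CHO-S cells with Gal4-NCOR and VP16-NR2E3 two-hybrid luciferase reporter.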
Chain of Photoreceptor-specific nuclear receptor (Q9Y5X4 whole entry, the tested form may be a part): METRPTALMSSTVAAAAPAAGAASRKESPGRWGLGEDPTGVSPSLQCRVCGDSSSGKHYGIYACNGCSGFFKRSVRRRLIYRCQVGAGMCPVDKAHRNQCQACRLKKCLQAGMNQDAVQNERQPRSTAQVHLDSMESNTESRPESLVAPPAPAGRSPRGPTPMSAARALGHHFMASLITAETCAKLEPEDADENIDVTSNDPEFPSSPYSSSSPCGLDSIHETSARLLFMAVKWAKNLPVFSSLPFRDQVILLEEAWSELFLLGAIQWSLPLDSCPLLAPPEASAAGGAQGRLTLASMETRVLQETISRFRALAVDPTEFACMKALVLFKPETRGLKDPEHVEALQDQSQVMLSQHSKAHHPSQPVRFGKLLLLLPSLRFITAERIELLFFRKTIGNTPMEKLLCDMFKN
The target in a further assay is Paired box protein Pax-8 (Homo sapiens, UniProt Q06710). Description: inhibitors of PAX8-driven TPO luciferase reporter, dose response, RMG-I cells, cherry-pick (AID 687027).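 Also: luciferase reporter driven by Pax8 target thyroperoxidase promoter measured by SteadyGlo luminescence.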 It counts as functional, cell-based. Background: A reporter such as luciferase makes a cellular process visible.
Assay [12] addresses T5, Histone-lysine N-methyltransferase NSD2 (Homo sapiens, UniProt O96028).
T5 sequence (O96028 whole entry): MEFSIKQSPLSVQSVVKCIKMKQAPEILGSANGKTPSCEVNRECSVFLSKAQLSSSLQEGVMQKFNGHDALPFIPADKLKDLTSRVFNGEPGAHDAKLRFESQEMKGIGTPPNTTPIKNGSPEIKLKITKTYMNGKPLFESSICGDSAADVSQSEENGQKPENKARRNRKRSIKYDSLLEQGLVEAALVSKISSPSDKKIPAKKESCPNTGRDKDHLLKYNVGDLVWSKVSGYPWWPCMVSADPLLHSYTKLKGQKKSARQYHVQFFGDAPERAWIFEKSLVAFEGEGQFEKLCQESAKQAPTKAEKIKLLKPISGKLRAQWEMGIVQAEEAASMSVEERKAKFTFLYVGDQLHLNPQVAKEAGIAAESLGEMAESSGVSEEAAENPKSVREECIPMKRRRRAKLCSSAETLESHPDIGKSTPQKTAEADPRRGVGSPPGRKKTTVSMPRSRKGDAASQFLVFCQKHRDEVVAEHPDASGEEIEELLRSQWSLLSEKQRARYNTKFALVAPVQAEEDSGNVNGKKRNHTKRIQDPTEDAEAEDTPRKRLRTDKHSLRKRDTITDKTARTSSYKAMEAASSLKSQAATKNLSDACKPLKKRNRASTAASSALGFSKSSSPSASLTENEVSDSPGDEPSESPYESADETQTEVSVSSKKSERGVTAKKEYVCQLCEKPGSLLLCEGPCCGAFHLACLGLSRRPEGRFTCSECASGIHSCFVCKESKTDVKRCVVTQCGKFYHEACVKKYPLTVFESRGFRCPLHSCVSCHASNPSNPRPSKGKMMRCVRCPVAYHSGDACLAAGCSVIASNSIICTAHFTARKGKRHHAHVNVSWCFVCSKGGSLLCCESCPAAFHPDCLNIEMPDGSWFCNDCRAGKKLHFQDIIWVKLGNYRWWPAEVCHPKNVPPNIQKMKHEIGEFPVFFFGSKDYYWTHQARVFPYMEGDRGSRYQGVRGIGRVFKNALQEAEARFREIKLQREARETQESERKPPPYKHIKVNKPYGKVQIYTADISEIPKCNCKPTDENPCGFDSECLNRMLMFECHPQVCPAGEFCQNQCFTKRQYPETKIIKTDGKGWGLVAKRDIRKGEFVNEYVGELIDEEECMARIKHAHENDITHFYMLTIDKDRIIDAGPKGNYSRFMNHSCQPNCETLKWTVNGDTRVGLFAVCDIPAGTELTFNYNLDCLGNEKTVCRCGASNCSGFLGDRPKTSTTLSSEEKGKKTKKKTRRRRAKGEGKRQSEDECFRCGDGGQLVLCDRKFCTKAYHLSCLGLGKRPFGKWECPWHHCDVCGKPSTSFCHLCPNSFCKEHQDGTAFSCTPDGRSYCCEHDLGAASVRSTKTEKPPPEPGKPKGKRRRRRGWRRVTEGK
The format is biochemical.

Assay [13] concerns the target T6, Tyrosyl-DNA phosphodiesterase 2 (Homo sapiens, UniProt O95551).
T6 sequence (O95551 whole entry): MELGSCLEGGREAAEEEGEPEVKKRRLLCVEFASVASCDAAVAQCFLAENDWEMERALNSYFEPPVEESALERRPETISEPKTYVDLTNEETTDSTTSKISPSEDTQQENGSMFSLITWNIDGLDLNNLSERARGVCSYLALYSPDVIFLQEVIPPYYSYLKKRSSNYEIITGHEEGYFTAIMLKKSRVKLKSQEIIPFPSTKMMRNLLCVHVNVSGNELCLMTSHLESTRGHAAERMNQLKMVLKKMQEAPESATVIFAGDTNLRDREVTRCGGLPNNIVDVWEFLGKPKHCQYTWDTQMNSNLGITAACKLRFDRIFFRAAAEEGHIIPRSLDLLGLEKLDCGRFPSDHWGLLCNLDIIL
Nature of the assay: human TDP2 enzyme inhibitors, dose response, biochemical, epi absorbance, IC50 (AID 743297).

Assay [14] deals with 1-phosphatidylinositol 4,5-bisphosphate phosphodiesterase gamma-1 (Homo sapiens, UniProt P19174). Nature of the assay: Counterscreen for inhibitors of phospholipase C isozymes (PLC-B3): Fluorescence-based biochemical high throughput dose response assay to identify inhibitors of phospholipase C isozymes (PLC-gamma1).
A short description of assay [15]: non-specific cell cytotoxicity, dose response, cytotoxicity control for PAX8 inhibitor project, plate reader, dry powder samples (AID 743021). The format is functional, cell-based.
The target of assay [16] is 1-phosphatidylinositol 4,5-bisphosphate phosphodiesterase beta-3 (Homo sapiens, UniProt Q01970). Nature of the assay: Fluorescence-based biochemical high throughput dose response assay to identify inhibitors of phospholipase C isozymes (PLC-B3).
The target of assay [17] is RNA-editing ligase 1, mitochondrial (Trypanosoma brucei brucei, UniProt P86926). Description: TbREL1 ligase inhibitors, dose response, biochemical, fluorescence, Trypanosoma brucei (AID 1117295). The format is functional.
Chain of RNA-editing ligase 1, mitochondrial (P86926 whole entry, the tested form may be a part): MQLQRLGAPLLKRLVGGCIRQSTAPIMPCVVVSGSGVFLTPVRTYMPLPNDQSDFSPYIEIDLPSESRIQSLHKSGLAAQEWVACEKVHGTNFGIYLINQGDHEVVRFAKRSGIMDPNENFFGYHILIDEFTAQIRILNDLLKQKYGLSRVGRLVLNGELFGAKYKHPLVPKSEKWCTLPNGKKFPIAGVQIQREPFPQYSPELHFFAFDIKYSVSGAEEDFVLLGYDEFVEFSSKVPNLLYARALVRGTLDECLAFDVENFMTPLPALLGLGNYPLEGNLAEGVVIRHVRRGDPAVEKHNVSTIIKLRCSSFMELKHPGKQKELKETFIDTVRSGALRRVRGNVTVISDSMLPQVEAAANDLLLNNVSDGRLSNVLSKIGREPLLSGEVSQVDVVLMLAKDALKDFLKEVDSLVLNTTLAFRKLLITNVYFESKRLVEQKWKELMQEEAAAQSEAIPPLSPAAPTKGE
The nature of assay [18]: ARNT/TACC3 interaction disruptors, potency, confirmation, biochemical, AlphaScreen, cherry-picked samples (AID 651703).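 Also: His-tagged ARNT PAS-B domain paired with GST-TACC3 E629A dimer coactivator fragment; potency of inhibitors that break up the complex and lower AlphaScreen signal.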 The format is functional, Homo sapiens.
In assay [19] the target is T4, Mitochondrial peptide methionine sulfoxide reductase. The format is functional.
Assay [20] is described as follows: inhibitors of firefly luciferase expression or activity, dose response, H4 neuroglioma cells, luminescence (AID 1990). It counts as functional, cell-based.
Assay [21] can be described thus: Luminescence Cell-Based Dose Response HTS to Identify Inhibitors of 5'UTR Stem-Loop Driven Prion Protein mRNA Translation in H4 Neuroglioblastoma Cells. [Related pubchem assays: 1827 (Project Summary), 1813 (Primary HTS)]. It counts as functional.
A short description of assay [22]: inhibitors of SNCA 5'UTR-driven reporter translation, confirmation, H4 neuroglioma cells, luminescence (AID 1988). It counts as functional, cell-based.
Assay [23] can be described thus: inhibitors of intracellular T. cruzi replication, confirmation, NIH3T3 host cells, beta-gal luminescence (AID 2044).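 Also: intracellular parasites grown in NIH/3T3 mouse fibroblasts as host cells; luminescent beta-galactosidase reporter signal from transgenic T. cruzi replicating inside host cells; inhibitors lower the luminescence signal.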 It counts as functional, cell-based.
The nature of assay [24]: cytotoxicity toward NIH3T3 fibroblasts, dose response, counter-screen, cell-based, ATP luminescence, mouse fibroblasts (AID 2010).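 Also: cells exposed to compound for about 90 hours before reading.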 It counts as functional.
Assay [25] has as its target Heat shock protein HSP 90-alpha (Homo sapiens, UniProt P07900). The format is functional, organism-based.
Assay [26] in a line: cytotoxicity in NIH3T3 fibroblasts, dose response, cytotoxicity control for HSP40 inhibitor project, cell-based, CellTiter-Glo luminescence, cherry-pick, set 2 (AID 624265). It counts as functional.

Molecules are shown by their SMILES. The source made the active and inactive calls. A value given as a limit tells only on which side of the number the result lay.

T4 sequence (P54149 whole entry, the tested form may be a part): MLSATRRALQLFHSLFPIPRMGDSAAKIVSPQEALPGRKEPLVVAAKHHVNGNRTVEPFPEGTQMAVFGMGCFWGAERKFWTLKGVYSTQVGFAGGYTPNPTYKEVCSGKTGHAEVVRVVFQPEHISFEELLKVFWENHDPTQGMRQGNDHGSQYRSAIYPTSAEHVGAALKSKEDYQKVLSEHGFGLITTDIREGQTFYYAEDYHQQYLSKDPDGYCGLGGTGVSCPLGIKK
Chain of Benomyl/methotrexate resistance protein (P28873 whole entry): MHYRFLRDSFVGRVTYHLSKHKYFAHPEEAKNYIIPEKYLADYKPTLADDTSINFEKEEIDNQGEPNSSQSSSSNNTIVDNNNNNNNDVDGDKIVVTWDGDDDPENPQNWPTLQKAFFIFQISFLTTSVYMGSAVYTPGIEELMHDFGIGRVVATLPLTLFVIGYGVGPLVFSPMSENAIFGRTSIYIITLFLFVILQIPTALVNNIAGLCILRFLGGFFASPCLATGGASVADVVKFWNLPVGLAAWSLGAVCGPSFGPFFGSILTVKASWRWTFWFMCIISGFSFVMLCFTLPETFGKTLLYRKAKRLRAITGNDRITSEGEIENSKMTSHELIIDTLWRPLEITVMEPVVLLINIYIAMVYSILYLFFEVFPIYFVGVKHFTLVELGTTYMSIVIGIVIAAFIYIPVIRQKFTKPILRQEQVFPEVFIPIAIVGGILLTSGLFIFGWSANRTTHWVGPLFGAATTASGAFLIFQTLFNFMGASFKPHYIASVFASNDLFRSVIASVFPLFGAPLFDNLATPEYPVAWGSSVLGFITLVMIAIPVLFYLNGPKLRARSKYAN
Chain of Ras and Rab interactor 1/Tyrosine-protein kinase ABL1 (P00519 whole entry): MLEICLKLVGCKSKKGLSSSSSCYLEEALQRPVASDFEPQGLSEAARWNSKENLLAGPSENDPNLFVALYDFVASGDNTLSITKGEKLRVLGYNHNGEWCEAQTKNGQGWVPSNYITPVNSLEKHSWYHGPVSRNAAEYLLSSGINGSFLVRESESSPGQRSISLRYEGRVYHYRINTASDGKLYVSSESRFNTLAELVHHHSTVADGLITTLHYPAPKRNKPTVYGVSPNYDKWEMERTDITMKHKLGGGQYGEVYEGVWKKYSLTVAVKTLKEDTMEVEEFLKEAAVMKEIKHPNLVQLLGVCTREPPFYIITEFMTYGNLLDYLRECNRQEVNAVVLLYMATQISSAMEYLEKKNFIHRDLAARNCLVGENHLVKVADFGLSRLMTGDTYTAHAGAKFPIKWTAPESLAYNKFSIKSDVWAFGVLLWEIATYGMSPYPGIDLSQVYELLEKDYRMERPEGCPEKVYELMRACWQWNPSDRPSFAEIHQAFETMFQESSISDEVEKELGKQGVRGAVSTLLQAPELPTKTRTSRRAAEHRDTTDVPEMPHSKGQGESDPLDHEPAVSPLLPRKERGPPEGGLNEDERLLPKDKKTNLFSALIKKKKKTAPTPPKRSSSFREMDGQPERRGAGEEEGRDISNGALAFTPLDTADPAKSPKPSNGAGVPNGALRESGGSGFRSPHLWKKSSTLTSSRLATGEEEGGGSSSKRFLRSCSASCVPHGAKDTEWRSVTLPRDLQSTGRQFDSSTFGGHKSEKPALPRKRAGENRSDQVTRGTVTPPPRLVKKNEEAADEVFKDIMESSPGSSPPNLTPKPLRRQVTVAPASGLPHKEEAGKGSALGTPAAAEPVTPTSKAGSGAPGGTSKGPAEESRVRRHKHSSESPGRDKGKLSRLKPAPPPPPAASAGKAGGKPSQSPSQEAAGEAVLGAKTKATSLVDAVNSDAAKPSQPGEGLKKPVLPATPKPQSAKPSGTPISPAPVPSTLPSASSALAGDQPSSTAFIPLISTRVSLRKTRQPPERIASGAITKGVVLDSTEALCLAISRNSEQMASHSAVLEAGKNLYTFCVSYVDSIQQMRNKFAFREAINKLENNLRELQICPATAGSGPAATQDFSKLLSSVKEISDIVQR
Chain of Ras and Rab interactor 1/Tyrosine-protein kinase ABL1 (Q13671 whole entry): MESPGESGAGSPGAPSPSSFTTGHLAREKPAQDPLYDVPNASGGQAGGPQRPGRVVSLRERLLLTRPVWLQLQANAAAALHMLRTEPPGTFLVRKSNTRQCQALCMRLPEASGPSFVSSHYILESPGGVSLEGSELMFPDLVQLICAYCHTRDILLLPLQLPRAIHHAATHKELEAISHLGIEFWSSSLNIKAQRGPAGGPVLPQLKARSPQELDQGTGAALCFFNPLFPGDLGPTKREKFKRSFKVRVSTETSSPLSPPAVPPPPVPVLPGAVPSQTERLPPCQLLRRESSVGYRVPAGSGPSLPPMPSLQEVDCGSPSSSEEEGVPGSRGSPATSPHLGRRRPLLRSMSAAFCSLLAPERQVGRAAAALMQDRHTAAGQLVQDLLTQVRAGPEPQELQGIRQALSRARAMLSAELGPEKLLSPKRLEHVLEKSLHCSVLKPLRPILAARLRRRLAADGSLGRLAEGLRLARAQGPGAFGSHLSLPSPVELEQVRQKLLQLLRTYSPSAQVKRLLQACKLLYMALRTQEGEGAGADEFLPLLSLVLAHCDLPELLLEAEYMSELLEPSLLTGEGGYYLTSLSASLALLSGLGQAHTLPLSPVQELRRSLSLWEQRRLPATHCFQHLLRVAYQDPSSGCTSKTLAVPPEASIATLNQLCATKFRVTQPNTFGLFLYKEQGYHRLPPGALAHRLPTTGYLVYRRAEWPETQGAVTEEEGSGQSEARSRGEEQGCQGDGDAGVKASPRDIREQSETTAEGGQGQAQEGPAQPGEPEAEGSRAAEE

For `COc1cc(OC)cc(-c2sc3ccc(OC)cc3c2-c2ccc(OCCN3CCCCC3)cc2)c1`, the figures for the EC50 in [1], in assay [2] and in [3] were 10.6 µM (active), 10.7 µM (active) and 7.51 µM (active), respectively.
Consider `COc1ccc(C(=O)NC(CCc2ccccc2)CC(=O)O)cc1` (configuration not stated), for which the EC50 in assay [4] was > 100 µM (inactive).
On to `C=Cc1ccc(CC2(C)C(=O)Nc3ccc(-c4cccnc4)cc32)cc1` (configuration not stated), for which the results for the IC50 on Interleukin-8 [5] and on Interleukin-8 [6] were 45.1 µM (inactive) and 25.5 µM (inactive), respectively.
Take `Cc1ccc(-c2cc3nc(-c4ccccc4)cc(N4CCN(C(=O)c5ccco5)CC4)n3n2)cc1`: the EC50 in [7] was 0.95 µM (active); in [8], 2.41 µM (active).
What is called AC50 is the concentration at which the activity in the assay is half-maximal. On to `O=C1C(=O)c2cccnc2-c2ncccc21`, for which the IC50 in [9] is 6.59 µM (active); in assay [11], 12.1 µM (inactive); in [13] it was 12.5 µM (inactive); in assay [14] it was 11.2 µM (inactive); in [16] it was > 123 µM (inactive); in assay [17], 3.51 µM (active). Besides, the EC50 in [10] was 3.64 µM (active). The AC50 was 3.32 µM (active) on Paired box protein Pax-8, 0.981 µM (active) in assay [12] and 8.53 µM (active) in [15].
Take `CCOc1ccc(Nc2nc(N)nc(CN(C)C3CCCCC3)n2)cc1`: the AC50 in [18] is 71.6 µM (active).
With `O=C(O)CC1SC(N/N=C/C=C/c2ccccc2)=NC1=O` (configuration not stated), the IC50 in assay [19] is 97.5 µM (inactive).
`CCC(C)n1ncn(-c2ccc(N3CCN(c4ccc(OCC5COC(Cn6cncn6)(c6ccc(Cl)cc6Cl)O5)cc4)CC3)cc2)c1=O` (configuration not stated) [ITRACONAZOLE]: the EC50 in assay [20] was > 120 µM (not active); in [21], 50 µM (active); in assay [22], > 120 µM (not active); in assay [23], 0.1 µM (active); in [24], > 60 µM (not active). In addition, the AC50 in assay [25] is < 0.195 µM (active). This compound also yielded an AbsAC35_uM in [26] of 105.6 µM.
